Data on one compound can be found in paper PMC10340464, “Identification of a Novel SSTR3 Full Agonist for the Treatment of Nonfunctioning Pituitary Adenomas” (Cancers, 2023).

The conditions of data set [1]: at high doses; ref manuscript in preparation; cited from earlier work. The text has this: One important aspect relates to safety margins. Hyperglycemia is a common side effect of SSTR panagonists such as Pasireotide. […] What remains to be ascertained clinically is whether the higher agonistic activity on SSTR3 may allow us to define a dose at which full receptor engagement is observed in the absence of significant hyperglycemia.

Data set [2] concerns µ (MOP) (h). As to the kind of experiment: Single-dose binding assay on µ opioid receptor. The arrangement: species or system human. The following applies: 10^−5 M.
Data set [3] has as its system SSTR2-tGFP. As to the kind of experiment: Receptor internalization in U2OS-transfected cells (SSTR2-tGFP). Type of data set: cell-based, human. The following applies: 3 h, high-content imaging, n = 3, method: percentage of activity relative to SST28 10^−6 M. As for the experimental part: (§1) Compounds were tested at five concentrations (10^−5, 10^−6, 10^−7, 10^−8, 10^−9 M) in comparison to untreated cells.
(§2) SST agonists were added to U2OS recombinant cell lines in OptiMeM medium (Life technologies 51985-034, Monza, Italy) for 3 h (SSTR2, SSTR3) or 7 h (SSTR5) (n = 3). After formaldehyde fixation, nuclei were stained using DAPI (2 µg/mL), and the fluorescence was measured with BD Pathway 855 High-Content Bioimager from Becton Dickinson. The receptor internalization was calculated using AttoVision 1.6 Software. Approximately 500 cells per field were analyzed. […]
(§3) (Invitrogen, Carlsbad, CA). Stable transfectants were selected in the presence of 500 µg/ml G-418. […]
(§4) % picric acid in phosphate buﬀer (pH 6.9) for 30 minutes at room temperature (RT). […]
(§5) 3.2. U2OS human cell lines transfected with human receptors (SSTR2-tGFP, SSTR3-tGFP,
(§6) Compounds were tested at ﬁve d iﬀerent concentrations (10-5, 10-6, 10-7, 10-8, 10^-9 M) in comparison to untreated cells.
(§7) U2OS recombinant cell lines were obtained from Innoprot (Derio, Spain). […] Nuclei were stained using DAPI (2 μg/ml) and the ﬂuorescence was measured using a BD Pathway 855 High-Content Bioimager from Becton Dickinson. The receptor internalization was calculated using AttoVision Software. […]
(§8) Agonist activity of test compounds was calculated relatively to positive control

Data set [4] has as its target T1, hSSTR3 (Homo sapiens, UniProt P32745).
T1 construct: expressed in transfected cells; host or cells: CHO-K1 (membranes)
Kind of data set: Radioligand binding to human SSTR3. As to conditions: from binding IC50.
Method: Data were analyzed with XLfit (IDBS) software (version 5.3.1.3) using nonlinear regression applied to a sigmoidal dose–response model. Agonist activity of test compounds is expressed as a percentage of the activity of the reference agonist at its EC100 concentration.
After 60 min at 25°C in a water bath, samples were ﬁltered over GF/B ﬁlters (Perkin
Elmer, 6005177) presoaked in 0.5% PEI for 2h at RT) with a Filtermate Harvester (Perkin
Elmer ). Filters were washed 6 times with 0.5 ml of ice-cold ﬁltration buﬀer, incubated 15
min. on an orbital shaker with 50 µl of Microscint 20 (Packard) and counted for
radioactivity with a TopCountTM or MicroBetaTM for 1 min/well.
Dose-response curve were performed for each SSTR (agonist range 10-11 – 3x10-7 M),
Each point was performed in duplicate2,3
Dose-response data from test compounds were analysed with XLﬁt (IDBS) software
using nonlinear regression applied to a sigmoidal dose-response model.
Agonist activity of test compounds is expressed as a percentage of the activity of the
reference agonist at its EC100 concentration.

The test system of data set [5] is GHRH-stimulated GH release, primary cultures of rat anterior pituitary cells. Kind of data set: Inhibition of GHRH-induced GH release in rat pituitary primary cell culture. As to conditions: rat GHRH 3x10^-9 M, 3 h 37 °C, GH by ELISA. Type of data set: cell-based.
Data set [6] has as its system HA-SSTR3. Kind of data set: SSTR3 phosphorylation, Western blot with phosphosite-specific antibodies, HEK293-transfected. The arrangement: key: + = very low activity; ++ = low activity; +++ = high activity; ++++ = very high activity. Type of data set: cell-based, human. As to conditions: HEK293 stably expressing HA-SSTR3, agonist 5 min 37 °C. As for the experimental part:
Western blot analysis was performed as previously described.
Next, the activation of human SSTRs induced by SSAs was tested by Western blot using phosphosite-specific antibodies directed against the following residues: S341/pS343 for SSTR2; S337/T341 for SSTR3; T333 for SSTR5 [31].
4.1. Western blot analysis
Western blot analysis was performed as previously described.7–9 Brieﬂy, HEK293 cells stably expressing the human somatostatin receptors were seeded onto poly-L-lysine-coated 60 mm dishes and grown to 90 % confluency. […]
PierceTM HA epitope tag antibody beads (Thermo Scientific, Rockford, USA) were used to enrich HA-tagged somatostatin receptors or wheat germ lectin-agarose beads for no-tagged somatostatin receptors. To elute proteins from the beads, the samples were incubated in SDS sample buffer for 20 min at 60°C. Supernatants were separated from the beads, loaded on 8% SDS polyacrylamide gels and immunoblotted onto nitrocellulose membranes afterwards. After blocking, membranes were incubated with phosphorylation state-speciﬁc somatostatin receptor antibodies: pS337/pT341-SST3 (7TM0357A), […]
Antibodies GmbH, Jena, Germany) at a dilution of 1:1000 at 4°C overnight. Membranes were incubated in HRP-linked secondary antibody for 2 hours, followed by detection using a chemiluminescence system (90 mM p-coumaric-acid, 250 mM luminol, 30% […]
according to the manufacturer’s instructions.
On the technique in general: In western blotting, separated proteins are transferred to a membrane and probed.

Data set [7] deals with SSTR3-tGFP. As to the kind of experiment: Receptor internalization in U2OS-transfected cells (SSTR3-tGFP). Type of data set: cell-based, human. The following applies: 3 h, high-content imaging, n = 3, method: percentage of activity relative to SST28 10^−6 M. Here is the method:
as §1, §2, §3, §4, §5, §6, §7, §8

Data set [8] deals with HA-SSTR3. Kind of data set: SSTR3 internalization in HEK293 cells, confocal microscopy. Type of data set: cell-based, human. The following applies: 1 µM agonist, 30 min 37 °C. Here is the method:
(§9) HEK293 cells obtained from DSMZ (Braunschweig, Germany) were transfected with plasmid encoding […] HA-tagged SSTR2, SSTR3 or SSTR5 receptors.
(§10) HEK293 cells stably expressing HA-tagged hSSTR cultures were preincubated with anti-HA antibody for 2 h at 4 °C and then exposed to 1 µM agonist for 30 min at 37 °C before fixing and further labeling with Alexa488-conjugated secondary antibody. After mounting with Roti®-MountFluorCare DAPI, cultures were examined using a Zeiss LSM510 META laser scanning confocal microscope (Zeiss, Jena, Germany) (see Supplementary Materials for details).
(§11) GH produced by primary cultures was tested by ELISA assay using Rat Growth Hormone Biotrak Enzyme immunoassay Mouse/Rat Growth ELISA (DSL-10-72100) or Rat/Mouse Growth Hormone ELISA (Millipore EZRMGH-45K) diluting supernatants 1:20, according to manufacturer’s instructions. […]
as §7, §8

The subject of data set [9] is HA-tagged SSTR5. Kind of data set: SSTR5 internalization in HEK293 cells, confocal microscopy. The data set is classed as cell-based, human. As to conditions: 1 µM agonist, 30 min 37 °C. As for the experimental part: as §9, §10, §11, §7, §8

T1 sequence (P32745 whole entry): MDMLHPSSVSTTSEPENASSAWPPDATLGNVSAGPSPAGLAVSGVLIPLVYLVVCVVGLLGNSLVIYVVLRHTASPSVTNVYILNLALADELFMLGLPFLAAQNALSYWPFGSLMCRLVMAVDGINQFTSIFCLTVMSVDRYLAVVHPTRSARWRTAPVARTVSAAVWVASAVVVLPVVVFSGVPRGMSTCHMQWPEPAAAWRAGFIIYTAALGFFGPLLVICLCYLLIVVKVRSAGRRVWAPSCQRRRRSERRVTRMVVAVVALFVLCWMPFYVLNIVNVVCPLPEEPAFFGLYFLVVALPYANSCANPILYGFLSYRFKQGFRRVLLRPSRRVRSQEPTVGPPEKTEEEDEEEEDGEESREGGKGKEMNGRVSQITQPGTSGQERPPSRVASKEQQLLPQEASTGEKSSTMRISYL

In the case of `COc1cc2cccc(OC)c2cc1C[C@H]1NC(=O)[C@H](Cc2ccc(O)cc2)NC(=O)[C@@H]2C[C@@H](OC(=O)NCCN)CN2C(=O)[C@H](Cc2ccccc2)NC(=O)[C@H](Cc2ccc(OCc3ccccc3)cc2)NC(=O)[C@H](CCCCN)NC1=O` [ITF2984, Cyclo[Tyr(Bn)-Phe-Pro(4-OCONH(CH2)2NH2)-Tyr-3,8-diMeONal-Lys]], the “glycemia in clinical studies” value in data set [1] is recorded as “increased glycemia”. The “Percentage of inhibition of opioid receptor µ (MOP) (h) (agonist)” value in data set [2] was 97%. In [3] (10^−5 M), the “Receptor internalization in U2OS-transfected cells, SSTR2, at 10^−5 M” value is listed as 37.3. Also, the “Receptor internalization in U2OS-transfected cells, SSTR2, at 10^−6 M (value in brackets)” value in [3] (10^−6 M) was 35.9. The “improved affinity for SSTR3 compared to Octreotide or Pasireotide” value in data set [4] amounted to 10 fold. The “GH release (inhibition ≅ 1 nM)” value in data set [5] worked out at 50%. In data set [6], the “Phosphorylation SSTR sites (HEK293-transfected): SSTR3—PS337/T341” value is listed as “++++” and the “Phosphorylation SSTR sites (HEK293-transfected): SSTR3—PT438” value was “++++”. For the same compound, in data set [7] (10^−5 M), the “Receptor internalization in U2OS-transfected cells, SSTR3, at 10^−5 M” value amounted to 61.1. The “Receptor internalization in U2OS-transfected cells, SSTR3, at 10^−6 M (value in brackets)” value in data set [7] (10^−6 M) is 62.5. Also, the “internalization of SSTR3 in transfected HEK293 cells” value in data set [8] is listed as “strong internalization”. Further, in [9], the “internalization of SSTR5 in transfected HEK293 cells” value was “partial internalization”.
